Here are results for one molecule from US8703704B2, “Method for growing, restoring and regenerating hair” (priority 2009, dated 2014).

The subject of test [1] is KRT15. Nature of the test: RT-PCR expression of KRT15 in HaCat. Format: cell-based, human. The conditions noted are these: 1 μM; 30 minutes after start of treatment; transitional. Here is the method:
(§1) Human normal cornified cell stock HaCat was seeded in a 3.5 cm falcon flat bottom […] dish at the seeding rate of 2×10^4 cells/dish. In 3 days, ANP was added by 1 μM, and RNA was recovered using RNeasy plus (QUIAGEN) from the cells at the time points of 0 minute, 30 minutes, and 4 hours after start of the treatment. cDNA was synthesized using Superscript III (Invitrogen) from 0.2 μg of RNA, and the synthesized cDNA was used as a template for PCR. Using GAPDH as an internal control, the sample was subjected to PCR and then agarose electrophoresis, then stained by Cyber Safe (Invitrogen), the electrophoresis image was photographed on a UV transilluminator with a digital camera (Olympus C5060WZ), and thickness of each band was measured with the Image J (for densitometer analysis). […] Expression of BMP-2 increased by 1.5 times as compared to samples not treated in 4 hours after treatment with ANP.

Test [2] deals with head hairs of patients of thin hairs. Nature of the test: ANP applied on head skin of patients of thin hairs. Format: in vivo, human. Here is the method: ANP was applied by 0.5 to 5 μg to two patients of thin hairs […], after the hairs were cleaned, twice a day (together with 0.5 ml of an isotonic aqueous solution) directly on the patients' head skin. States of pores and hairs and total state of head hairs after administration of ANP were observed and compared to those before start of administration of ANP. Observation of the states was also performed in 40 days and in 60 days after start of ANP administration for assessment. […] In 2 to 3 weeks after start of administration of ANP, it was observed that elasticity and solidity increased in total hairs on the patients' heads. In one month after start of ANP administration, the sites on each patient's head where the head skin had been visible became less visible. The retarded front line of head hairs again moved frontward, and new hairs grew up to the length of 5 to 7 mm. Furthermore, a second short hair was discovered at the side of a long grown hair. […] Black spiral hairs were observed under the pore portions. Just after the spiral hairs came out from under the head skin, the hairs kept the spiral state, but when the hairs become straight, the length was in the range from 3 to 4 mm.

Test [3] deals with wounds caused by the surgical operation (laser removal of lentigo). The test can be described thus: ANP applied to facial wounds caused by laser surgery (left half treated, right half as comparison). Format: in vivo, human. Here is the method: In a patient who received operation for removing lentigo on the entire facial surface by the laser method, ANP was administered at a dose of 0.1 to 5 μg (with an isotonic aqueous solution at a dose of 0.01 ml to 0.5 ml) twice a day to wounds caused by the surgical operation or areas around the wounds on the left half of the patient's face, and the result was compared to wounds on the right side half of the patient's face. […] Furthermore, tension of skin was observed more clearly in the left side facial area as a whole as compared to that in the right side, and smoothness of the facial skin in the left side was improved.

Test [4] has as its system Cyclin D1. Nature of the test: RT-PCR expression of Cyclin D1 in HaCat. Format: cell-based, human. The conditions noted are these: 1 μM. Here is the method:
as §1

The test system of test [5] is cardiac muscle of a patient suffering from the dilated cardiomyopathy. The test can be described thus: Intermittent intravenous ANP in a patient with dilated cardiomyopathy. Format: in vivo, human. Here is the method: A small quantity of ANP was administered intermittently, namely once for a week by 1 mg over 4 hours by means of intravenous injection to a patient diagnosed as suffering from the dilated cardiomyopathy who was […]. The contraction percentage was 19% before start of administration of ANP, but was improved up to 40% in 6 months, and also the systemic arterial capacity, which was NYHA IV before start of the treatment, was improved up to NYHA II. […] By continuing administration of ANP once a week for two years, the […] was improved up to NYHA I, and although the patient's prognosis was regarded as 6 months by the conventional therapy, it is now determined that the patient will be able to enjoy the ordinary domestic life for 10 years or more. The patient's cardiac muscle thickness and contractile activity are at present quite good.

Test [6] concerns skin of hands (cracked and rough). Nature of the test: ANP applied on hands with cracked and rough skin. Particulars: 0.5 to 5 μg twice a day on backs and palms of both hands. Format: in vivo, human. Here is the method:
The ANP according to the present invention was applied on both the backs and palms of both hands of a ceramic artist who touched water and mud every day at a dose of 0.5 to 5 μg twice a day.

Test [7] deals with Human normal cornified cell stock HaCat. Nature of the test: Colony formation of HaCat in drops. Format: cell-based. Particulars: 1 μM ANP. Here is the method:
In the case of 10 μl drop, formation of any colony was not observed.

Test [8] has the same test system. The test can be described thus: Wound (scratch) test on confluent HaCat. Format: cell-based. Here is the method:
Human normal cornified cell stock HaCat was seeded in a falcon flat bottom 6-well dish at the seeding rate of 2×10^5 cells/dish. In 3 days, the cells in the confluent state were injured with a pipetteman chip, and the cells were washed with PBS twice, and then ANP was added so that the content was 1 μM (in OptiMEM serum free). In 24 hours, behaviors of the cells were observed (FIG. 4).

“Also recorded” adds a separate entry of the source.

As for `CC[C@H](C)[C@@H]1NC(=O)[C@H](CCCNC(=N)N)NC(=O)[C@H](CC(=O)O)NC(=O)[C@H](CCSC)NC(=O)[C@H](CCCNC(=N)N)NC(=O)CNC(=O)CNC(=O)[C@H](Cc2ccccc2)NC(=O)[C@@H](NC(=O)[C@H](CO)NC(=O)[C@H](CO)NC(=O)[C@H](CCCNC(=N)N)NC(=O)[C@H](CCCNC(=N)N)NC(=O)[C@H](CC(C)C)NC(=O)[C@@H](N)CO)CSSC[C@@H](C(=O)N[C@@H](CC(N)=O)C(=O)N[C@@H](CO)C(=O)N[C@@H](Cc2ccccc2)C(=O)N[C@@H](CCCNC(=N)N)C(=O)N[C@@H](Cc2ccc(O)cc2)C(=O)O)NC(=O)CNC(=O)[C@H](CC(C)C)NC(=O)CNC(=O)[C@H](CO)NC(=O)[C@H](CCC(N)=O)NC(=O)[C@H](C)NC(=O)CNC1=O` [ANP, atrial natriuretic peptide], in test [1], the “increase of expression rate of KRT15” value is on record as “about 20%”. Moreover, in test [2] (0.5 to 5 μg twice a day, one week after start), the “growth of downy hairs on the frontal region” value is given as “growth of hairs like downy hairs was observed”. Moreover, in test [2] (2 to 3 weeks after start), the “elasticity and solidity of total hairs” value is reported as “increased”. Moreover, the “thickness of head hairs” value in test [2] (40 days after start) is on record as “thickness increased”. Moreover, the “visibility of head skin” value in test [2] (60 days after start) was “hardly visible”. Further, the closure of wounds result in test [3] (0.1 to 5 μg twice a day, one week after start, versus untreated right side) was “most of the wounds were closed”. In test [3] (ANP area compared to control area / no ANP), the restoration of wounds result is “advances far quickly; also recorded: more quickly restored”. The “smoothness of the facial skin” value in test [3] (left (treated) side) is recorded as “improved”. In test [3] (sites where ANP was administered), the surgical traces entry was “less remarkable”. For the same molecule, the “reformation of subcutaneous tissue” value in test [3] (treated left half versus untreated right half of face) is given as “clearly earlier”. Also, the “expression rate of Cyclin D1 relative to the original level” value in test [4] was “⅓ and around ⅓”. In addition, the contraction percentage in test [5] (1 mg i.v. over 4 hours once a week, in 6 months, 19% before start) was 40%. For the same molecule, the “NYHA class after continued administration” value in test [5] (ANP once a week for two years) is “NYHA I”. The “cardiac muscle thickness (ultrasonic diagnosis)” value in test [5] (during ANP treatment) was “increased”. Moreover, in test [5] (in 6 months, NYHA IV before start of the treatment), the NYHA functional class entry was “NYHA II”. Also, the “time the patient will be able to enjoy ordinary domestic life (prognosis)” value in test [5] (prognosis was 6 months by the conventional therapy) is at least 10 years. For the same molecule, the “cracked and rough skin symptoms” value in test [6] was “remarkably improved”. The “capability of forming colonies” value in test [7] is “form colonies; also recorded: colonies formed”. In addition, in test [8] (1 μM), the cell motility entry is on record as “rose”. Moreover, in test [8] (1 μM in OptiMEM serum free, 24 hours), the “behaviour of cells at wound edges” value is “many rounding-like sites are observed; also recorded: rounding-like state was observed at many sites”.
